Values quoted from earlier work as cited in patent US5281421A, “Gemfibrozil formulations” (Warner-Lambert Company, priority 1992, dated 1994).

Conditions: particularly in a highly acidic medium

Cc1ccc(C)c(OCCCC(C)(C)C(=O)O)c1 [Gemfibrozil, 5-(2,5-dimethylphenoxy)-2,2-dimethylpentanoic acid]
solubility in water: very poor solubility in water
